Experiment [1] concerns the target T1, hKv1.3 (Homo sapiens, UniProt P22001).
T1 construct: endogenous in cells
It counts as cell-based.
Protocol: The human venous blood from anonymized healthy donors was obtained from a blood bank. The peripheral blood mononuclear cells were isolated through Histopaque1077 (Sigma-Aldrich Hungary, Budapest, Hungary) density gradient centrifugation. Cells obtained were resuspended in RPMI 1640 medium containing 10% fetal calf serum (Sigma-Aldrich), 100 µg/ml penicillin, 100 µg/ml streptomycin, and 2 mM L glutamine, seeded in a 24-well culture plate at a density of 5 x 10^5 cells per ml, and grown in a 5% CO2 incubator at 37°C for 2–5 days. Phytohemagglutinin A (Sigma-Aldrich) was added in 5, 7, and 10 µg/ml concentrations to the medium to boost the potassium ion channel expression.
Electrophysiological measurements were performed by using the patch-clamp technique in whole-cell or outside-out patch configuration and voltage clamp mode using the Multiclamp 700B amplifier and Axon Digidata1440 digitizer (Molecular Devices, Sunnyvale, CA). Micropipettes were pulled from GC150F-15 borosilicate capillaries (Harvard Apparatus Kent, United Kingdom), resulting in 3–5 MΩ resistance in the bath solution. The extracellular solution contained 145 mM NaCl, 5 mM KCl, 1 mM MgCl2, 2.5 mM CaCl2, 5.5 mM glucose, and 10 mM HEPES, with a pH of 7.35 and an osmolarity between 302 and 308 mOsM/L. When the toxins were dissolved at different molar concentrations in bath solution, it was supplemented with 0.1 mg/ml of BSA. The pipette filling (intracellular) solution consisted of 140 mM KF, 2 mM MgCl2, 1 mM CaCl2, 10 mM HEPES, and 11 mM EGTA, with a pH of 7.22 and an osmolarity of 295 mOsM/L.
To record the hKv1.3 and hKv1.2 currents, 15- to 200-ms-long depolarization impulses were applied at +50 mV from a holding potential of −120 mV every 15 s. The pClamp 10.1 software package was used to acquire and analyze the measured data. Current traces were low-pass filtered by the analog four-pole Bessel filters of the amplifiers, and the sampling frequency was set at 20 kHz, at least twice that of the filter cutoff frequency. The effect of the toxin at a given molar concentration was calculated as the remaining current fraction (RCF = I/I0, where I0 is the peak current in the absence of the toxin and I is the peak current at equilibrium block at a given toxin concentration). The data points on dose–response curves represent the mean of 3–4 individual measurements. […]
Pharmacological activity of both versions of rMgTx was evaluated by studying their effect on the hKv1.2 and hKv1.3 ion channels. The hKv1.2 current was recorded in CHO cells, which heterologously expressed the hKv1.2 ion channel, and hKv1.3 current was recorded in the human peripheral blood lymphocytes. […]

The target in experiment [2] is Kv1.3. The conditions noted are these: cited from earlier work. As to the method: Voltage-gated potassium (Kv) channels are present in a variety of cells and tissues where they regulate multiple physiological processes, including cardiac function, neural excitability, muscle contraction, cell proliferation, cell volume control, and hormonal secretion ([Coetzee et al., 1999]; [Giangiacomo et al., 2004]). […] Previous studies report the production of recombinant MgTx (rMgTx) in E. coli and P. ... || Pharmacological activity of both versions of rMgTx was evaluated by studying their effect on the hKv1.2 and hKv1.3 ion channels. The hKv1.2 current was recorded in CHO cells, which heterologously expressed the hKv1.2 ion channel, and hKv1.3 current was recorded in the human peripheral blood lymphocytes. The stimulation of the hKv1.3 channel expression (activation of isolated mononuclear cells by PHA, see the Materials and Methods section) and recording conditions (no Ca^2+ in the pipette to elicit Ca^2+-activated K^+ channels) guaranteed that the current recorded in these cells is K^+ current ... || (+ 2 further places)

In experiment [3] the test system is Kv1.1. The conditions noted are these: abstract, ref not given; cited from earlier work. The text has this:
Margatoxin (MgTx) is a high-affinity blocker of voltage-gated potassium (Kv) channels. […] This toxin is widely used to study physiological function of Kv ion channels in various cell types, including immune cells. Isolation of native MgTx in large quantities from scorpion venom is not affordable. Chemical synthesis and recombinant production in Escherichia coli need in vitro oxidative refolding for proper disulfide bond formation, resulting in a very low yield of peptide production. The Pichia pastoris expression system offers an e ...

In experiment [4] the test system is Kv1.2. The conditions noted are these: 2014, cited from earlier work. As for the experimental part:
Margatoxin (MgTx) is a 39-amino-acid peptide toxin isolated from the venom of the scorpion Centruroides margaritatus. Its 3D structure consists of an α-helix and three antiparallel β-strands stabilized by three disulfide bonds. […] Previous studies report the production of recombinant MgTx (rMgTx) in E. coli and P. ... || Pharmacological activity of both versions of rMgTx was evaluated by studying their effect on the hKv1.2 and hKv1.3 ion channels. The hKv1.2 current was recorded in CHO cells, which heterologously expressed the hKv1.2 ion channel, and hKv1.3 current was recorded in the human peripheral blood lymphocytes. The stimulation of the hKv1.3 channel expression (activation of isolated mononuclear cells by PHA, see the Materials and Methods section) and recording conditions (no Ca^2+ in the pipette to elicit Ca^2+-activated K^+ channels) guaranteed that the current recorded in these cells is K^+ current ... || The kinetics of current block by UrMgTx was consistent with previously reported data for MgTx. […] The association rate of TrMgTx, which has the N-terminal His-tag, was ∼1.6-fold lower than that of UrMgTx for both hKv1.2 and hKv1.3. The reduced k on rate could be explained by non–diffusion-limited bimolecular toxin–channe ...

By Kd is commonly meant a measure of binding affinity in units of concentration.

T1 sequence (P22001 whole entry): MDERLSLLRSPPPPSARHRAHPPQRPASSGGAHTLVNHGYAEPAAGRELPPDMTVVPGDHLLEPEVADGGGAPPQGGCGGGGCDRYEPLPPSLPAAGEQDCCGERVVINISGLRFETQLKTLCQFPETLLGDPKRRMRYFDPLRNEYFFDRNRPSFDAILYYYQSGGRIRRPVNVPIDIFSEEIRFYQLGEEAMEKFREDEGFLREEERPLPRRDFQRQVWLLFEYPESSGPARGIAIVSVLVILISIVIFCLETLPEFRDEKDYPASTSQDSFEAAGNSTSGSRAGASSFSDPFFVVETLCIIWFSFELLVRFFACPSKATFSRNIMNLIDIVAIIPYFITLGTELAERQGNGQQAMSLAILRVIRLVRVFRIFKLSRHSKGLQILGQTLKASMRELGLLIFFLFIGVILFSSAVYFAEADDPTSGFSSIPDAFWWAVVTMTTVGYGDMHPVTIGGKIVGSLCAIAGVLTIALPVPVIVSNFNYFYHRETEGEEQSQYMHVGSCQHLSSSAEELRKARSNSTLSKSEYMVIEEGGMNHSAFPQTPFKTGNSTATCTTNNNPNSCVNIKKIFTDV

Consider `CC[N+](CC)(CC)CC` [tetraethylammonium, reference compound], for which the “reduction in peak current, positive control” value in experiment [1] is listed as “Around 50%”. In addition, the Kd in experiment [2] was 10 mM.
In the case of “MgTx (TIINVKCTSPKQCLPPCKAQFGQSAGAKCMNGKCKCYPH; UniProt P40755 1-39, looked up)”, the “inhibition of Kv1.1” value in experiment [3] was “in picomolar concentrations”. Besides, the “kinetics and reversibility of block, hKv1.2” value in experiment [4] (hKv1.2, whole-cell patch-clamp, ref Bartok et al.) is “develops relatively slowly and reversibility of the block is limited”. For the same molecule, the “inhibition of Kv1.2” value in experiment [4] (ref Garcia-Calvo et al., 1993, Bartok et al.) is reported as “high potency in picomolar concentrations”. Moreover, in experiment [2] (hKv1.3, whole-cell patch-clamp, ref Bartok et al., 2014), the “kinetics and reversibility of block, hKv1.3” value is “equilibrium block develops rapidly and is fully recoverable upon washout”. Further, the “inhibition of Kv1.3” value in experiment [2] (ref Garcia-Calvo et al., 1993, Bartok et al., 2014) is on record as “high potency in picomolar concentrations”.
